Source: patent US8178690B2, “Compounds and methods for inhibiting the interaction of BCL proteins with binding partners” (Infinity Pharmaceuticals, Inc., priority 2006, dated 2012)

Experiments:
Bcl-2 = Bcl-2 (Homo sapiens, UniProt P10415); experiment: Bcl-2 binding affinity analysis (fluorescence polarization binding assay); conditions: read-out: BcI2 (Ki, Bcl-2 binding affinity)
From the text: (§1) Bcl-2 and Bcl-xL binding may be determined using a variety of known methods. One such assay is a sensitive and quantitative in vitro binding assay using fluorescence polarization (FP) described by Wang, J.-L.; Zhang, Z-J.; Choksi, S.; Sjam. S.; Lu, Z.; Croce, C. M.; Alnemri, E. S.; Komgold, R.; Huang, Z. Cell permeable Bcl-2 binding peptides: a chemical approach to apoptosis induction in tumor cells. Cancer Res. 2000, 60, 1498-1502).
(§2) Bcl-2 and Bcl-xL binding affinity analysis data is presented below for various compounds of the invention.

Bcl-xL = Bcl-xL (Homo sapiens, UniProt Q07817); experiment: Bcl-xL binding affinity analysis (fluorescence polarization binding assay); conditions: read-out: BcI-XI (Ki, Bcl-xL binding affinity)
Bcl-xL, sequence (Q07817 whole entry): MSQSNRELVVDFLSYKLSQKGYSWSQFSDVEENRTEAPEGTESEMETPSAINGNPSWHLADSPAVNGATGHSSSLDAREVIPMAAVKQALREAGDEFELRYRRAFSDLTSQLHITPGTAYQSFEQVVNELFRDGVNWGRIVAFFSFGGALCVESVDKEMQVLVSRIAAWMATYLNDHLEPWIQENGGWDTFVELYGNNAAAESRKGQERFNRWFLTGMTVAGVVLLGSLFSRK
From the text: as §1, §2

Bcl-2, sequence (P10415 whole entry): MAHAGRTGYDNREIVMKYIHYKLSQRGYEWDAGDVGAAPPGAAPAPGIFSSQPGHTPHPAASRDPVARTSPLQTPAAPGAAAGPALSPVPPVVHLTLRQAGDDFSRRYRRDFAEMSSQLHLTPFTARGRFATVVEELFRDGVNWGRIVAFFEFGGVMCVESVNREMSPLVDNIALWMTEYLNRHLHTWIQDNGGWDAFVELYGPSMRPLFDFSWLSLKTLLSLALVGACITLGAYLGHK

Row | SMILES | Ki (Bcl-2) [nM] | Ki (Bcl-xL) [nM]
1 | COc1c(CN2O[C@@H](CN)[C@@H]([C@H](C)O)[C@H]2C(=O)N[C@H]2C[C@H]3C[C@@H]([C@@H]2C)C3(C)C)cccc1-c1cc(C(=O)N[C@@H](Cc2ccccc2)CN(C)C)cc(N(C)CCO)c1 [Compound 302] | < 1 | 1000 to 5000
2 | CNC(=O)c1cc(-c2cccc(CN3O[C@@H](CNCc4ccccn4)[C@@H]([C@H](C)O)[C@H]3C(=O)N[C@H]3C[C@H]4C[C@@H]([C@@H]3C)C4(C)C)c2OC)cc(N(C)C)c1 [Compound 83] | > 9 | > 10000
3 | C[C@@H]1[C@@H](NC(=O)[C@@H]2[C@H]([C@H](C)O)[C@H](CO)ON2Cc2cccc(-c3cc(C(=O)N[C@@H](Cc4ccccc4)CN(C)C)cc(N(C)C)c3)c2OCC2CC2)C[C@H]2C[C@@H]1C2(C)C [Compound 26] | < 1 | < 1000
4 | CCNC[C@@H]1ON(Cc2cccc(-c3cc(C(=O)NC)cc(N(C)C)c3)c2OC)[C@H](C(=O)N[C@H]2C[C@H]3C[C@@H]([C@@H]2C)C3(C)C)[C@@H]1[C@H](C)O [Compound 94] | 1 to 5 | > 10000
5 | COc1c(CN2O[C@@H](CO)[C@@H]([C@H](C)O)[C@H]2C(=O)N[C@H]2C[C@H]3C[C@@H]([C@@H]2C)C3(C)C)cccc1-c1cc(C(C)=O)cc(C(=O)N[C@@H](Cc2ccccc2)CN(C)C)c1 [Compound 299] | < 1 | < 1000
6 | CNC(=O)c1cc(-c2cccc(CN3O[C@@H](CN)[C@@H]([C@H](C)OC(=O)NCCc4ccccc4)[C@H]3C(=O)N[C@H]3C[C@H]4C[C@@H]([C@@H]3C)C4(C)C)c2OC)cc(N(C)C)c1 [Compound 91] | > 9 | > 10000
7 | CNC(=O)c1cc(-c2cccc(CN3O[C@@H](CN)[C@@H]([C@H](C)OC(=O)NCCN(C)C)[C@H]3C(=O)N[C@H]3C[C@H]4C[C@@H]([C@@H]3C)C4(C)C)c2OC)cc(N(C)C)c1 [Compound 92] | > 9 | > 10000
8 | COc1c(CN2O[C@@H](CN)[C@@H]([C@H](C)O)[C@H]2C(=O)N[C@H]2C[C@H]3C[C@@H]([C@@H]2C)C3(C)C)cccc1-c1cc(C(=O)N[C@@H](CC(C)C)CN(C)C)cc(N(C)C)c1 [Compound 72] | < 1 | < 1000
9 | CCN(CC)c1cc(C(=O)N[C@@H](CC(C)C)CN(C)C)cc(-c2cccc(CN3O[C@@H](CO)[C@@H]([C@H](C)O)[C@H]3C(=O)N[C@H]3C[C@H]4C[C@@H]([C@@H]3C)C4(C)C)c2OC)c1 [Compound 267] | < 1 | 1000 to 5000
10 | CNC[C@H](Cc1ccccc1)NC(=O)c1cc(-c2cccc(CN3O[C@@H](CO)[C@@H]([C@H](C)O)[C@H]3C(=O)N[C@H]3C[C@H]4C[C@@H]([C@@H]3C)C4(C)C)c2OC)cc(N(C)C)c1 [Compound 165] | < 1 | < 1000
11 | CCN1CCC[C@@H]1CNC(=O)c1cc(-c2cccc(CN3O[C@@H](CO)[C@@H]([C@H](C)O)[C@H]3C(=O)N[C@H]3C[C@H]4C[C@@H]([C@@H]3C)C4(C)C)c2OC)cc(N(C)C)c1 [Compound 312] | < 1 | < 1000
12 | CCOc1c(CN2O[C@@H](CO)[C@@H]([C@H](C)O)[C@H]2C(=O)N[C@H]2C[C@H]3C[C@@H]([C@@H]2C)C3(C)C)cccc1-c1cc(C(=O)N[C@H](Cc2ccccc2)CN(C)C)cc(N(C)C)c1 [Compound 23] | < 1 | < 1000
13 | COc1c(CN2O[C@@H](CO)[C@@H]([C@H](C)O)[C@H]2C(=O)N[C@H]2C[C@H]3CC([C@@H]2C)C3(C)C)cccc1-c1cc(C(=O)N[C@@H](Cc2ccccc2)CN(C)C)cc(N2CCC[C@@H]2CO)c1 [Compound 296] | < 1 | < 1000
14 | COc1c(CN2O[C@@H](CO)[C@@H]([C@H](C)O)[C@H]2C(=O)N[C@H]2C[C@H]3C[C@@H]([C@@H]2C)C3(C)C)cccc1-c1cc(C(=O)N[C@H](CN(C)C)[C@H](OC)c2ccccc2)cc(N(C)C)c1 [Compound 152] | < 1 | < 1000
15 | CCOc1c(CN2O[C@@H](CN)[C@@H]([C@H](C)O)[C@H]2C(=O)N[C@H]2C[C@H]3C[C@@H]([C@@H]2C)C3(C)C)cccc1-c1cc(C(=O)N[C@@H](Cc2ccccc2)CN(C)C)cc(N(C)C)c1 [Compound 218] | < 1 | 1000 to 5000
16 | COc1c(-c2cc(C(=O)N[C@H](CN(C)C)[C@H](O)c3ccccc3)cc(N(C)C)c2)ccc(F)c1CN1O[C@@H](CO)[C@@H]([C@H](C)O)[C@H]1C(=O)N[C@H]1C[C@H]2C[C@@H]([C@@H]1C)C2(C)C [Compound 143] | < 1 | < 1000

The next lines start with the values.

Row | Ki (Bcl-2) [nM] | Ki (Bcl-xL) [nM] | SMILES
17 | 5 to 9 | > 10000 | COc1c(CN2O[C@@H](CN)[C@@H]([C@H](C)O)[C@H]2C(=O)N[C@H]2C[C@H]3C[C@@H]([C@@H]2C)C3(C)C)cccc1-c1cc(C(=O)N(C)C)cc(N(C)C)c1 [Compound 69]
18 | < 1 | < 1000 | COc1c(CN2O[C@@H](CO)[C@@H]([C@H](C)O)[C@H]2C(=O)N[C@H]2C[C@H]3C[C@@H]([C@@H]2C)C3(C)C)cccc1-c1cc(C(=O)N[C@@H](CC(C)C)CN(C)C)cc([N+](=O)[O-])c1 [Compound 263]
19 | < 1 | < 1000 | COc1c(CN2O[C@@H](CO)[C@@H]([C@H](C)O)[C@H]2C(=O)N[C@H]2C[C@H]3C[C@@H]([C@@H]2C)C3(C)C)cccc1-c1cc(C(=O)N(C)[C@@H](Cc2ccccc2)CN(C)C)cc(N(C)C)c1 [Compound 311]
20 | < 1 | < 1000 | COc1c(CN2O[C@@H](CO)[C@@H]([C@H](C)O)[C@H]2C(=O)N[C@H]2C[C@H]3C[C@@H]([C@@H]2C)C3(C)C)cccc1-c1cc(C(=O)N[C@H](CN(C)C)CC(C)(C)C)cc(N(C)C)c1 [Compound 1]
21 | > 9 | > 10000 | CNC(=O)c1cc(-c2cccc(CN3O[C@@H](CN(C)C)[C@@H]([C@H](C)O)[C@H]3C(=O)N[C@H]3C[C@H]4C[C@@H]([C@@H]3C)C4(C)C)c2OC)cc(N(C)C)c1 [Compound 99]
22 | < 1 | < 1000 | COc1c(CN2O[C@@H](CO)[C@@H]([C@H](C)O)[C@H]2C(=O)N[C@H]2C[C@H]3C[C@@H]([C@@H]2C)C3(C)C)cccc1-c1cc2c(c(C(=O)N[C@H](CN(C)C)CC(C)(C)C)c1)OCC2 [Compound 256]
23 | < 1 | < 1000 | COc1c(-c2cc(C(=O)N[C@@H](Cc3ccccc3)CN(C)C)cc(N(C)C)c2)ccc(F)c1CN1O[C@@H](CN)[C@@H]([C@H](C)O)[C@H]1C(=O)N[C@H]1C[C@H]2C[C@@H]([C@@H]1C)C2(C)C [Compound 127]
24 | 5 to 9 | 1000 to 5000 | CNC(=O)c1cc(-c2cccc(CN3O[C@@H](CNC(=O)CCC(=O)O)[C@@H]([C@H](C)O)[C@H]3C(=O)N[C@H]3C[C@H]4C[C@@H]([C@@H]3C)C4(C)C)c2OC)cc(N(C)C)c1 [Compound 75]
25 | < 1 | < 1000 | COc1c(CN2O[C@@H](CNC(C)=O)[C@@H]([C@H](C)O)[C@H]2C(=O)N[C@H]2C[C@H]3C[C@@H]([C@@H]2C)C3(C)C)cccc1-c1cc(C(=O)N[C@H](CN(C)C)CC(C)(C)C)cc(N(C)C)c1 [Compound 73]
26 | < 1 | 5000 to 10000 | COc1c(CN2O[C@@H](CN)[C@@H]([C@H](C)O)[C@H]2C(=O)N[C@H]2C[C@H]3C[C@@H]([C@@H]2C)C3(C)C)cccc1-c1cc(C(=O)N(C)OC)cc(N(C)C)c1 [Compound 66]
